From patent US11980632B2 (priority 2020, dated 2024)

What follows are compounds tested on corona-pseudovirus.
Type: cell-based, SARS-CoV-2
With heparin the “infection with the corona-pseudovirus (degree of infection depending on drug concentration)” value (“infection with the corona-pseudovirus” for short) was “inhibited in a concentration-dependent manner”.
For CN(C)C(=O)COC(=O)Cc1ccc(OC(=O)c2ccc(NC(=N)N)cc2)cc1 [Camostat], the “infection with the corona-pseudovirus” value was “inhibited in a concentration-dependent manner”.
In the case of CCN(CCO)CCCC(C)Nc1ccnc2cc(Cl)ccc12 (stereo not drawn) [hydroxychloroquinine], the “infection with the corona-pseudovirus” value is reported as “inhibited in a concentration-dependent manner”.
